Laboratory results: US20100036088A1, “Selective poly-N-substituted glycine antibiotics” (priority 2008, published 2010)
Read-outs that look alike come from different tables or passages of the source. Marks after values point to notes of the source that are not given here. Square brackets hold non-standard residues; d marks the D form. Peptide text beside a SMILES is read from it. Nspe = C[C@H](NCC(=O)O)c1ccccc1; NDecylGly = CCCCCCCCCCNCC(=O)O; NPentylGly = CCCCCNCC(=O)O; Nlys = NCCCCNCC(=O)O

Legend:
human erythrocytes = test: Hemolysis assay; format: cell-based; conditions: for HD10 (10% hemolytic dose) / HD50 (50% hemolytic dose): red cells of human, 1 h
How it was run: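 Human erythrocytes from fresh heparinised blood, 20 vol % in PBS pH 7.4, mixed 1:1 with 2-fold serial peptoid dilutions; PBS as 0% and 0.2 vol % Triton X-100 as 100% hemolysis. Incubated 1 h at 37 °C, diluted, centrifuged 1200 g for 15 min; supernatant A350 read.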

B. subtilis = format: cell-based
Description: (§1) Antibacterial assays. MICs were determined according to CLSI M7-A6 protocols in a 96-well microtiter plate. In test wells, 50 μL bacterial inoculum (5×10^5 CFU/ml) in Mueller-Hinton broth (MHB) was added to 50 μL peptoid solution in MHB (prepared by 1:2 serial dilutions). Positive controls contained 50 μL inoculum and 50 μL MHB without peptoid. […] MIC values reported were reproducible between three independent experimental replicates, each consisting of two parallel trials. Broad-spectrum antimicrobial susceptibility testing was performed against BSL2 pathogens by Nova Biologicals, Inc. (Conroe, Tex.).
(§2) Screening antibacterial assays. MICs were determined in 96-well microtiter plates in accordance with CLSI M7-A6 protocols. Peptoid solutions with 50 μL total volume were prepared using 2:1 serial dilutions. 50 μL of bacteria inoculum (1×10^6 CFU/mL) prepared in cation-adjusted Mueller-Hinton broth (CAMHB) was added to test wells. Control wells contained 100 μL MHB (no growth) or 50 μL inoculums with 50 μL MHB with no peptoid. […] Reported values were reproducible over three experiments, each containing two parallel trials.

E. coli = format: cell-based
Description: as §1, §2

[1] = test system: Candida albicans (SC5314); format: cell-based, C. albicans
Description: Additionally, in order to characterize possible antifungal activity, a library of alkylated compounds was tested against C. albicans, a representative fungal strain.
Antifungal Assays. MICs were determined using the broth microdilution assay given by CLSI M27-A2 protocols. Candida albicans (SC5314) was grown on Sabouraud dextrose agar for 24 hours at 30° C. Cells were suspended in 0.145 M saline, and the cell concentration was adjusted to 3×10^6 cells/mL. After adjusting the cell concentration, the suspension was diluted 1:1000 with RPMI 1640 (with L-glutamine and without sodium bicarbonate, Invitrogen) buffered with 0.145 M 3-(N-morpholino) propanesulfonic acid (MOPS). Two-fold serial dilutions of peptoids, peptides, and amphotericin B (Calbiochem) were prepared in RPMI 1640 and mixed with an equal volume of the cell suspension in 96-well plates. The final testing concentrations for the peptoids and peptides were 0.20 to 100 μM, and concentrations for amphotericin B were 0.031 to 16 μM. Growth controls and sterility controls were also included. Plates were incubated for 48 hours at 35° C., and growth of C. albicans was inspected visually to determine the MICs. The MIC for each compound was defined as the lowest concentration with no visible fungal growth. Experiments were performed in duplicate on two separate days.

SMILES | HD10 (human erythrocytes) | HD50 (human erythrocytes) | B. subtilis MIC (B. subtilis) | E. coli MIC (E. coli) | C. albicans MIC ([1]; SC5314) [µM] | HD10 (10% hemolytic dose) (human erythrocytes) | HD50 (50% hemolytic dose) (human erythrocytes) | C. albicans MIC ([1]; SC5314, 48 h) [µM]
CCCCCCCCCCNCC(=O)N(CCCCN)CC(=O)N(CC(=O)N(CC(=O)N(CCCCN)CC(N)=O)[C@@H](C)c1ccccc1)[C@@H](C)c1ccccc1 [C10-14 mer] (H-[NDecylGly][Nlys][Nspe][Nspe][Nlys]-NH2) | >200/>200 μM | >200/>200 μM | 6.3 µM | >100 µM | 100 | – | – | –
CCCCCCCCCCNCC(=O)N(CCCCN)CC(=O)N(CC(=O)N(CC(=O)N(CCCCN)CC(=O)N(CC(=O)N(CC(=O)N(CCCCN)CC(=O)N(CC(=O)N(CC(N)=O)[C@@H](C)c1ccccc1)[C@@H](C)c1ccccc1)[C@@H](C)c1ccccc1)[C@@H](C)c1ccccc1)[C@@H](C)c1ccccc1)[C@@H](C)c1ccccc1 [C10-19 mer] (H-[NDecylGly][Nlys][Nspe][Nspe][Nlys][Nspe][Nspe][Nlys][Nspe][Nspe]-NH2) | 12 µM | 40 µM | 3.1 µM | 6.3 µM | 3.1 | – | – | –
CCCCCCCCCCNCC(=O)N(CCCCN)CC(=O)N(CC(=O)N(CC(=O)N(CCCCN)CC(=O)N(CC(=O)N(CC(=O)N(CCCCN)CC(=O)N(CC(=O)N(CC(=O)N(CCCCN)CC(=O)N(CC(=O)N(CC(N)=O)[C@@H](C)c1ccccc1)[C@@H](C)c1ccccc1)[C@@H](C)c1ccccc1)[C@@H](C)c1ccccc1)[C@@H](C)c1ccccc1)[C@@H](C)c1ccccc1)[C@@H](C)c1ccccc1)[C@@H](C)c1ccccc1 [C10-1] (H-[NDecylGly][Nlys][Nspe][Nspe][Nlys][Nspe][Nspe][Nlys][Nspe][Nspe][Nlys][Nspe][Nspe]-NH2) | 8 µM | 27 µM | 1.6 µM | 12.5 µM | 1.6 | – | – | –
C[C@@H](c1ccccc1)N(CC(N)=O)C(=O)CN(C(=O)CN(CCCCN)C(=O)CN(C(=O)CN(C(=O)CN(CCCCN)C(=O)CN(C(=O)CN(C(=O)CNCCCCN)[C@@H](C)c1ccccc1)[C@@H](C)c1ccccc1)[C@@H](C)c1ccccc1)[C@@H](C)c1ccccc1)[C@@H](C)c1ccccc1 [19 mer, H-(Nlys-Nspe-Nspe)3-NH2] (H-[Nlys][Nspe][Nspe][Nlys][Nspe][Nspe][Nlys][Nspe][Nspe]-NH2) | 150 µM | > 200 µM | 1.6 µM | 25 µM | – | >150/>150 μM | >150/>150 μM | 15.6
CCCCCNCC(=O)N(CCCCN)CC(=O)N(CC(=O)N(CC(=O)N(CCCCN)CC(=O)N(CC(=O)N(CC(N)=O)[C@@H](C)c1ccccc1)[C@@H](C)c1ccccc1)[C@@H](C)c1ccccc1)[C@@H](C)c1ccccc1 [C5-16 mer] (H-[NPentylGly][Nlys][Nspe][Nspe][Nlys][Nspe][Nspe]-NH2) | >200/>200 μM | >200/>200 μM | 3.1 µM | >200 µM | 100 | – | – | –
C[C@@H](c1ccccc1)N(CC(N)=O)C(=O)CN(C(=O)CN(CCCCN)C(=O)CN(C(=O)CN(C(=O)CNCCCCN)[C@@H](C)c1ccccc1)[C@@H](C)c1ccccc1)[C@@H](C)c1ccccc1 [16 mer, H-(Nlys-Nspe-Nspe)2-NH2] (H-[Nlys][Nspe][Nspe][Nlys][Nspe][Nspe]-NH2) | >220/>220 μM | >220/>220 μM | 27* μM | 27* μM | – | >220/>220 μM | >220/>220 μM | >100
CCCCCNCC(=O)N(CCCCN)CC(=O)N(CC(=O)N(CC(=O)N(CCCCN)CC(=O)N(CC(=O)N(CC(=O)N(CCCCN)CC(=O)N(CC(=O)N(CC(N)=O)[C@@H](C)c1ccccc1)[C@@H](C)c1ccccc1)[C@@H](C)c1ccccc1)[C@@H](C)c1ccccc1)[C@@H](C)c1ccccc1)[C@@H](C)c1ccccc1 [C5-19 mer] (H-[NPentylGly][Nlys][Nspe][Nspe][Nlys][Nspe][Nspe][Nlys][Nspe][Nspe]-NH2) | 65 µM | > 200 µM | 1.0 µM | 16.3 µM | 12.5 | – | – | –
CCCCCCCCCCNCC(=O)N(CCCCN)CC(=O)N(CC(=O)N(CC(=O)N(CCCCN)CC(=O)N(CC(=O)N(CC(N)=O)[C@@H](C)c1ccccc1)[C@@H](C)c1ccccc1)[C@@H](C)c1ccccc1)[C@@H](C)c1ccccc1 [C10-16 mer] (H-[NDecylGly][Nlys][Nspe][Nspe][Nlys][Nspe][Nspe]-NH2) | 30 µM | 80 µM | 1.6 µM | 6.3 µM | 6.25 | – | – | –
